In general, melting point refers to the temperature, or range, at which the solid turns liquid.

Read-outs that look alike come from different tables or passages of the source.

Data set [1] has as its system tobacco mosaic virus (TMV). The data set can be described thus: Anti-TMV curative activity (treatment mode), live friction inoculation on tobacco seedlings. Format: in vivo. The following applies: Tobacco mosaic virus, read-out: Anti-TMV activity, Curative effect (inhibition), 100 μg/mL, tobacco seedlings, checked on seventh day.
Another data set concerns Alternaria solani. The data set can be described thus: Fungicidal activity, fungi growth rate method, AS. The following applies: Alternaria solani, 50 μg/mL. In kind it is cell-based.
For the next data set, the system named is Botrytis cinerea. The data set can be described thus: Fungicidal activity, fungi growth rate method, BC. In kind it is cell-based. The following applies: Botrytis cinerea, 50 μg/mL.
In data set [2] the test system is tobacco mosaic virus (TMV). The data set can be described thus: Anti-TMV protective activity (protection mode), live friction inoculation on tobacco seedlings. In kind it is in vivo. Conditions: Tobacco mosaic virus, read-out: Anti-TMV activity, Protection effect (inhibition).
The next data set relates to Sclerotinia sclerotiorum. The data set can be described thus: microbe, parasite or virus in culture. The following applies: Sclerotinia sclerotiorum, 50 μg/mL. In kind it is cell-based.
The test system of the next data set is Pellicularia sasakii. The data set can be described thus: Fungicidal activity, fungi growth rate method, PS. Conditions: 50 μg/mL; read-out: Fungicidal activity, inhibition, PS. In kind it is cell-based.
In data set [3] the test system is tobacco mosaic virus (TMV). The data set can be described thus: Anti-TMV inducing activity (induction mode), tobacco seedlings. Conditions: Tobacco mosaic virus, read-out: Anti-TMV activity, Induction effect (inhibition), 100 μg/mL, tobacco seedlings. In kind it is in vivo.
The subject of the next data set is wheat Gibberella zeae. The data set can be described thus: microbe, parasite or virus in culture. Format: cell-based. Conditions: Fusarium graminearum.
Data set [4] deals with Phytophthora infestans (Mont) de Bary. The data set can be described thus: microbe, parasite or virus in culture. Format: cell-based. Conditions: Phytophthora infestans.
The subject of a further data set is Physalospora piricola. The experiment in a line: Fungicidal activity, fungi growth rate method, PP. In kind it is cell-based. The following applies: 50 μg/mL; read-out: Fungicidal activity, inhibition, PP.
Data set [5] relates to tobacco mosaic virus (TMV). The data set can be described thus: Anti-TMV inactivation activity (inactivation mode), compound mixed with TMV before inoculation of tobacco leaves. Format: in vivo. Conditions: Tobacco mosaic virus, read-out: Anti-TMV activity, Inactivation effect (inhibition).
A further data set concerns Cercospora arachidicola. The experiment in a line: Fungicidal activity, fungi growth rate method, CA. In kind it is cell-based. Conditions: Mycosphaerella arachidis; 50 μg/mL; read-out: Fungicidal activity, inhibition, CA.
The next data set relates to Rhizoctonia cerealis. The data set can be described thus: Fungicidal activity, fungi growth rate method, RC. The following applies: Ceratobasidium cereale, 50 μg/mL. Format: cell-based.
The mark [6] stands for this setting: read-out: Fungicidal activity, inhibition, AS.
The mark [7] stands for this setting: read-out: Fungicidal activity, inhibition, BC.
Where [8] appears, read: read-out: Fungicidal activity (inhibition) against SS: Sclerotinia sclerotiorum.
Setting [9] is: read-out: Fungicidal activity, inhibition, SS.
Setting [10] is: read-out: Fungicidal activity, inhibition, GZ.
Where [11] appears, read: read-out: Fungicidal activity, inhibition, PI.
Setting [12] is: read-out: Fungicidal activity, inhibition, RC.
[13] abbreviates: read-out: Fungicidal activity (inhibition) against BC: Botrytis cinerea.
Where [14] appears, read: read-out: Fungicidal activity (inhibition) against PI: Phytophthora infestans (Mont) de Bary.

For the compound `CC(C)(C)OC(=O)N1CCC(c2nc(/C=C3\N=C(c4ccccc4)OC3=O)cs2)CC1` [Compound 73], the melting point fell in the range of 189 to 191 °C. The inhibition at 100 µg/mL in data set [1] amounted to 0%. Further, the inhibition at 50 µg/mL with Alternaria solani (setting [6]) was determined as 36%. Further, in the data set on Botrytis cinerea (setting [7]), the inhibition at 50 µg/mL was 10%. For the same compound, the inhibition at 100 µg/mL in [2] was 11%. For the same compound, the inhibition at 50 µg/mL in the data set with Sclerotinia sclerotiorum (setting [8]) is 80 to 95%. Further, the inhibition at 50 µg/mL in the data set with Sclerotinia sclerotiorum (setting [9]) was 89%. The inhibition at 50 µg/mL with Pellicularia sasakii came out at 20%. For the same compound, the inhibition at 100 µg/mL in data set [3] was 8%. For the same compound, the inhibition at 50 µg/mL in the data set on wheat Gibberella zeae (setting [10]) was determined as 23%. Further, the inhibition at 50 µg/mL in data set [4] (setting [11]) is 24%. The inhibition at 50 µg/mL in the data set with Physalospora piricola is 19%. The inhibition at 100 µg/mL in data set [5] came out at 59%. Besides, the inhibition at 50 µg/mL in the data set on Cercospora arachidicola came out at 16%. In addition, the inhibition at 50 µg/mL in the data set with Rhizoctonia cerealis (setting [12]) stood at 24%.

On to `CC(C)(C)OC(=O)N1CCC(c2nc(/C=C(\NC(=O)c3ccccc3)C(=O)O)cs2)CC1` [Compound 74, (Z)-2-benzoylamino-3-[4-[2-[4-(1-Boc-piperidine)]thiazol]]propenoic acid], for which the melting point was 125 to 127 °C. Moreover, the inhibition at 100 µg/mL in data set [1] was determined as 3%. Moreover, the inhibition at 50 µg/mL in the data set with Alternaria solani (setting [6]) was determined as 36%. Moreover, the inhibition at 50 µg/mL in the data set on Botrytis cinerea (setting [13]) worked out at 41%. In addition, the inhibition at 50 µg/mL in the data set with Botrytis cinerea (setting [7]) is 41%. The inhibition at 100 µg/mL in [2] is 48%. For the same compound, in the data set with Sclerotinia sclerotiorum (setting [8]), the inhibition at 50 µg/mL lay within 80 to 95%. In addition, in the data set on Sclerotinia sclerotiorum (setting [9]), the inhibition at 50 µg/mL turned out to be 89%. In addition, the inhibition at 50 µg/mL in the data set with Pellicularia sasakii was 38%. In addition, the inhibition at 100 µg/mL in data set [3] stood at 63%. Besides, the inhibition at 50 µg/mL in the data set on wheat Gibberella zeae (setting [10]) was determined as 42%. Moreover, in [4] (setting [14]), the inhibition at 50 µg/mL turned out to be 40%. Besides, in data set [4] (setting [11]), the inhibition at 50 µg/mL was 40%. Moreover, the inhibition at 50 µg/mL with Physalospora piricola came out at 32%. Besides, the inhibition at 100 µg/mL in data set [5] came to 0%. In the data set with Cercospora arachidicola, the inhibition at 50 µg/mL was 39%. Further, the inhibition at 50 µg/mL in the data set with Rhizoctonia cerealis (read-out: Fungicidal activity (inhibition) against RC: Rhizoctonia cerealis) was found to be 44%. Also, in the data set with Rhizoctonia cerealis (setting [12]), the inhibition at 50 µg/mL is 44%.

Compound `Cc1nnsc1/C=C1\N=C(c2ccccc2)OC1=O` [Compound 77, (4Z)-4-[5-(4-methyl-1,2,3-thiadiazol)ethenyl]-2-phenyl-1,3-oxazol-5-(4H)-one] showed a melting point of 196 to 198 °C. Besides, the inhibition at 100 µg/mL in [1] stood at 0%. In the data set with Alternaria solani (setting [6]), the inhibition at 50 µg/mL was 11%. Moreover, the inhibition at 50 µg/mL in the data set with Botrytis cinerea (setting [7]) came to 12%. The inhibition at 100 µg/mL in data set [2] is 40%. In addition, the inhibition at 50 µg/mL in the data set on Sclerotinia sclerotiorum (setting [8]) is 47%. For the same compound, the inhibition at 50 µg/mL in the data set on Sclerotinia sclerotiorum (setting [9]) came out at 47%. Also, the inhibition at 50 µg/mL with Pellicularia sasakii was 14%. For the same compound, the inhibition at 100 µg/mL in data set [3] was 44%. The inhibition at 50 µg/mL in the data set with wheat Gibberella zeae (setting [10]) came to 43%. Further, the inhibition at 50 µg/mL in data set [4] (setting [11]) came to 16%. The inhibition at 50 µg/mL in the data set with Physalospora piricola came to 6%. In [5], the inhibition at 100 µg/mL amounted to 0%. Also, in the data set on Cercospora arachidicola, the inhibition at 50 µg/mL is 24%. Further, the inhibition at 50 µg/mL with Rhizoctonia cerealis (setting [12]) amounted to 23%.

For the compound `Cc1snnc1/C=C1\N=C(c2ccccc2)OC1=O` [Compound 78, (4Z)-4-[4-(5-methyl-1,2,3-thiadiazol)ethenyl]-2-phenyl-1,3-oxazol-5-(4H)-one], the melting point fell in the range of 149 to 151 °C. Besides, the inhibition at 100 µg/mL in data set [1] was determined as 0%. Moreover, in the data set with Alternaria solani (read-out: Fungicidal activity (inhibition) against AS: Alternaria solani), the inhibition at 50 µg/mL came to 29%. Moreover, the inhibition at 50 µg/mL in the data set with Alternaria solani (setting [6]) was 29%. Moreover, the inhibition at 50 µg/mL with Botrytis cinerea (setting [13]) was found to be 26%. For the same compound, the inhibition at 50 µg/mL in the data set on Botrytis cinerea (setting [7]) was 26%. Moreover, the inhibition at 100 µg/mL in data set [2] stood at 0%. Further, in the data set with Sclerotinia sclerotiorum (setting [9]), the inhibition at 50 µg/mL was determined as 53%. Moreover, the inhibition at 50 µg/mL in the data set with Pellicularia sasakii was determined as 3%. Also, the inhibition at 100 µg/mL in data set [3] stood at 68%. In addition, the inhibition at 50 µg/mL with wheat Gibberella zeae (read-out: Fungicidal activity (inhibition) against GZ: wheat Gibberella zeae) came to 57%. The inhibition at 50 µg/mL in the data set with wheat Gibberella zeae (setting [10]) was 57%. The inhibition at 50 µg/mL in [4] (setting [14]) worked out at 26%. Besides, the inhibition at 50 µg/mL in data set [4] (setting [11]) came out at 26%. Also, the inhibition at 50 µg/mL in the data set on Physalospora piricola stood at 15%. Further, the inhibition at 100 µg/mL in [5] was determined as 47%. Besides, the inhibition at 50 µg/mL in the data set with Cercospora arachidicola amounted to 21%. Besides, the inhibition at 50 µg/mL in the data set on Rhizoctonia cerealis (setting [12]) turned out to be 18%.

Values taken from patent publication US11166460B2, “α-amino acrylate microbicide, and preparation method therefor and uses thereof” (priority 2017, dated 2021).
